pKi: −log10 of the molar value.
Target: T1, prostanoide receptor subtype (mouse EP3 α) (Mus musculus, UniProt P30557)
T1 construct: expressed in transfected cells; host or cells: CHO cells (membrane fraction)
T1 sequence (P30557 1-365): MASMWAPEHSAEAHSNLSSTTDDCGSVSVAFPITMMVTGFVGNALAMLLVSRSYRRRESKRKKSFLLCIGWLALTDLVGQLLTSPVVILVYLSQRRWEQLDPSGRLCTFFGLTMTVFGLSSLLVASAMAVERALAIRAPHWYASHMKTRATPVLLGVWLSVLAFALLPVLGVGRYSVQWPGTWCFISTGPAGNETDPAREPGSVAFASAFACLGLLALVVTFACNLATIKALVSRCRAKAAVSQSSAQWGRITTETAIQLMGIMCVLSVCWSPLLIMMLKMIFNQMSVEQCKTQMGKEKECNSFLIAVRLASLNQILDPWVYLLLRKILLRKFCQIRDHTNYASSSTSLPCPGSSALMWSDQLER
Assay: Binding assay using expression cell of prostanoide receptor subtype ([3H]-PGE2 competition)
Conditions: membrane fraction of CHO cells expressing mouse EP3 α; 2.5 nM [3H]-PGE2; 1 hour, room temperature; buffer pH6.0; Ki=IC50/(1+([C]/Kd)); read-out: Ki (dissociation constant)
Procedure: For example, in standard laboratory test, the effects of the compounds of the present invention were confirmed by inhibitory effect on binding PGE2 using expression cell of mouse receptor.
Binding Assay Using Expression Cell of Prostanoide Receptor Subtype
The preparation of membrane fraction was carried out according to the method of Sugimoto et al [J. Biol. Chem. 267, 6463-6466(1992)], using expression CHO cell of prostanoide receptor subtype (mouse EP3 α).
The standard assay mixture contained membrane fraction (0.5 mg/ml), [^3 H]-PGE2 in a final volume of […] was incubated for 1 hour at room temperature. The reaction was terminated by addition of 3 ml of ice-cold buffer. The mixture was rapidly filtered through a glass filter (GF/B). The radioactivity associated with the filter was measured by liquid scintillation counting.
Kd and Bmax values were determined from Scatchard plots [Ann. N.Y. Acad. Sci., 51, 660(1949)]. Non-specific binding was calculated as the bond in the presence of an excess ([…]) of unlabeled PGE2. In the experiment for competition of specific [^3 H]-PGE2 binding by the compounds of the present invention, [^3 H]-PGE2 was added at a concentration of 2.5 nM and the compounds of the present invention were at a concentration of 1 mM.
The following buffer was used in all reactions.
Buffer: 10 mM potassium phosphate (pH6.0), 1 mM EDTA, 10 mM MgCl2, 0.1 M NaCl
The dissociation constant (Ki) of each compound was calculated by the following equation.

Compound | pKi
CN(C)C(=O)COc1cccc2c(CCC(=O)NC(c3ccccc3)c3ccccc3)cccc12 [Example 4a, N,N-dimethyl-[5-(2-diphenylmethylaminocarbonylethyl)naphthyl-1-oxy]acetic Acid Amide] | 6.70
COC(=O)COc1cccc2c(CCC(=O)NC(c3ccccc3)c3ccccc3)cccc12 [Example 1, [5-(2-diphenylmethylaminocarbonylethyl)naphthyl-1-oxy]acetic Acid Methyl Ester] | 5.24
C[C@@H](NC(=O)CCc1cccc2c(OCC(=O)O)cccc12)c1ccccc1 [Example 2k, [5-[2-((1R)-1-phenylethyl)aminocarbonylethyl]naphthyl-1-oxy]acetic Acid] | 6.08
NC(=O)COc1cccc2c(CCC(=O)NC(c3ccccc3)c3ccccc3)cccc12 [Example 4, [5-(2-diphenylmethylaminocarbonylethyl)naphthyl-1-oxy]acetic Acid Amide] | 7.64
O=C(O)COc1cccc2c(CCC(=O)NN(c3ccccc3)c3ccccc3)cccc12 [Example 2a, [5-[2-(3,3-diphenylcarbazoyl)ethyl]naphthyl-1-oxy]acetic Acid] | 6.96
O=C(COc1cccc2c(CCC(=O)NC(c3ccccc3)c3ccccc3)cccc12)NCCO [Example 4b, N-(2-hydroxyethyl)-[5-(2-diphenylmethylaminocarbonylethyl)naphthyl-1-oxy]acetic Acid Amide] | 5.89
C[C@H](NC(=O)CCc1cccc2c(OCC(=O)O)cccc12)c1ccccc1 [Example 2l, [5-[2-((1S)-1-phenylethyl)aminocarbonylethyl]naphthyl-1-oxy]acetic Acid] | 6.05
O=C(CCc1cccc2c(OCCO)cccc12)NC(c1ccccc1)c1ccccc1 [Example 3, 2-[5-(2-diphenylmethylaminocarbonylethyl)naphthyl-1-oxy]ethanol] | 7.59
O=C(O)COc1cccc2c(CCNC(=O)C(c3ccccc3)c3ccccc3)cccc12 [Example 8, [5-[2-(diphenylmethylcarbonylamino)ethyl]naphthyl-1-oxy]acetic Acid] | 7.17
O=C(O)COc1cccc2c(CC(=O)NC(c3ccccc3)c3ccccc3)cccc12 [Example 2d, [5-(diphenylmethylaminocarbonylmethyl)naphthyl-1-oxy]acetic Acid] | 7.30
O=C(O)COc1cccc2c(CCC(=O)NC(c3ccccc3)c3ccccc3)cccc12 [Example 2, [5-(2-diphenylmethylaminocarbonylethyl)naphthyl-1-oxy]acetic Acid] | 7.96

From US6013673A, “Naphthyloxy acetic acid derivatives” (Ono Pharmaceutical Co., Ltd., priority 1994, dated 2000)
